{
  "source": "ChEMBL document CHEMBL1150155",
  "about": "“Purealidin S and purpuramine J, bromotyrosine alkaloids from the Fijian marine sponge Druinella sp” (2002)",
  "key": {"[1]": {"system": "A2780", "assay": "Cytotoxicity against human A2780 cells", "assay_type": "functional", "settings": "read-out: ID50 (the source's name)"}, "[2]": {"system": "K562", "assay": "Cytotoxicity against human K562 cells", "assay_type": "functional", "settings": "read-out: ID50 (the source's name)"}},
  "data": [
    {"smiles": "CNCCCOc1c(Br)cc(CCNC(=O)C2=NO[C@]3(C=C(Br)C(OC)=C(Br)[C@@H]3O)C2)cc1Br", "values": [
      {"measurement": "IC50", "setting": "[1]", "value": 7.44, "unit": "µg/mL"},
      {"measurement": "IC50", "setting": "[2]", "value": 6.02, "unit": "µg/mL"}
    ]},
    {"smiles": "COC1=C(Br)[C@@H](O)[C@]2(C=C1Br)CC(C(=O)NCCc1cnc[nH]1)=NO2", "note": "[AEROPHOBIN 1]", "values": [
      {"measurement": "IC50", "setting": "[1]", "value": 21.5, "unit": "µg/mL"},
      {"measurement": "IC50", "setting": "[2]", "value": 24.1, "unit": "µg/mL"}
    ]},
    {"smiles": "COC1=C(Br)[C@H](O)[C@@]2(C=C1Br)CC(C(=O)NCCCc1cnc(N)[nH]1)=NO2", "note": "[AEROPHOBIN 2]", "values": [
      {"measurement": "IC50", "setting": "[1]", "value": "> 10", "unit": "µg/mL"},
      {"measurement": "IC50", "setting": "[2]", "value": 6.91, "unit": "µg/mL"}
    ]},
    {"smiles": "COc1ccc(C/C(=N/O)C(=O)NCCc2cc(Br)c(OCCCN(C)C)c(Br)c2)cc1Br", "note": "[APLYSAMINE 2]", "values": [
      {"measurement": "IC50", "setting": "[1]", "value": 2.83, "unit": "µg/mL"},
      {"measurement": "IC50", "setting": "[2]", "value": 1.37, "unit": "µg/mL"}
    ]},
    {"smiles": "COC1=C(Br)[C@@H](O)[C@]2(C=C1Br)CC(C(=O)NCCCOc1c(Br)cc(CCN)cc1Br)=NO2", "note": "[ARAPLYSILLIN 1]", "values": [
      {"measurement": "IC50", "setting": "[1]", "value": 18.6, "unit": "µg/mL"},
      {"measurement": "IC50", "setting": "[2]", "value": 27.9, "unit": "µg/mL"}
    ]},
    {"smiles": "COC1=C(Br)[C@H](O)[C@@]2(C=C1Br)CC(C(=O)NCCCOc1c(Br)cc(CCNC(=O)CCCCCCCCCCCC(C)C)cc1Br)=NO2", "note": "[ARAPLYSILLIN 2]", "values": [
      {"measurement": "IC50", "setting": "[1]", "value": 14.8, "unit": "µg/mL"},
      {"measurement": "IC50", "setting": "[2]", "value": 42.7, "unit": "µg/mL"}
    ]},
    {"smiles": "COC1=C(Br)[C@@H](O)[C@]2(C=C1Br)CC(C(=O)NCCc1cnc(N)[nH]1)=NO2", "note": "[PUREALIDIN J]", "values": [
      {"measurement": "IC50", "setting": "[1]", "value": "> 10", "unit": "µg/mL"},
      {"measurement": "IC50", "setting": "[2]", "value": "> 10", "unit": "µg/mL"}
    ]},
    {"smiles": "CNCCCOc1c(Br)cc(CCNC(=O)/C(Cc2ccc(OC)c(Br)c2)=N/O)cc1Br", "note": "[PURPUREAMINE I]", "values": [
      {"measurement": "IC50", "setting": "[1]", "value": 1.7, "unit": "µg/mL"},
      {"measurement": "IC50", "setting": "[2]", "value": 1.24, "unit": "µg/mL"}
    ]},
    {"smiles": "COc1ccc(C/C(=N\\O)C(=O)NCCc2cc(Br)c(OCCC[N+](C)(C)[O-])c(Br)c2)cc1Br", "note": "[PURPUREAMINE J]", "values": [
      {"measurement": "IC50", "setting": "[1]", "value": 6.77, "unit": "µg/mL"},
      {"measurement": "IC50", "setting": "[2]", "value": 5.97, "unit": "µg/mL"}
    ]}
  ]
}
